Read-outs that look alike come from different tables or passages of the source.
Assays:
[1] = molecular target: T1, full-length beta-Catenin (Uniprot ID P35222) (Homo sapiens, UniProt P35222); assay: Fluorescence polarization IC50 (beta-catenin / 5FAM-TCF4 10-53 competition); format: binding
T1 construct: 10 nM full-length beta-Catenin (Uniprot ID P35222)
T1 sequence (P35222 1-781): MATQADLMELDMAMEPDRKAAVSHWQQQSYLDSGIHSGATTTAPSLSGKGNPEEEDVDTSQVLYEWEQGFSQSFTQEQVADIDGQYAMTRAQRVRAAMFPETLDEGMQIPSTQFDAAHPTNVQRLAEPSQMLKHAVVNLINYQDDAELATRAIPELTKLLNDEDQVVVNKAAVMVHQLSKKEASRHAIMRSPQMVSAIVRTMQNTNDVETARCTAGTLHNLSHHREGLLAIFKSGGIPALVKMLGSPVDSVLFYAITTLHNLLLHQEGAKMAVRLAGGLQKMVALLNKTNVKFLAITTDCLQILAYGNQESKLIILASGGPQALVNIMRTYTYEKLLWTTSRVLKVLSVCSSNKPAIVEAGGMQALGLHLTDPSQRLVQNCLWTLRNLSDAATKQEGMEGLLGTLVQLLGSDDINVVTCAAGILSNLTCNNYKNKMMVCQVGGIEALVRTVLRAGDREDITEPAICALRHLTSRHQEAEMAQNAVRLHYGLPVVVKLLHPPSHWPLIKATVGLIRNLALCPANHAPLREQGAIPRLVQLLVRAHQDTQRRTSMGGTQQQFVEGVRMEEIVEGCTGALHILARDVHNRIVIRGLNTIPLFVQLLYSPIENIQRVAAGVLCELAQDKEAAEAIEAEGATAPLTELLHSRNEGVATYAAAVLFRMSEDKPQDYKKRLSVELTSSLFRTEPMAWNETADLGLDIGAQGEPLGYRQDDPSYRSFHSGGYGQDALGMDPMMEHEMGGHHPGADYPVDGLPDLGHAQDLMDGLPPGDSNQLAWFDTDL

CHI Log D procedure = format: physicochemical; settings: for CHI Log D: pH 7.4; for chromatographic logD: pH 7.4, CHI Log D
[2] = fluorescence polarization, read-out: beta-Catenin FP IC50

IC50 [1, 2] | IC50 ([1]; read-out: FP EC50) | CHI Log D (CHI Log D procedure) | IC50 ([1]; read-out: beta-Catenin FP IC50) | chromatographic logD (CHI Log D procedure) | Compound
370 nM | 370 nM | 2.713 | – | – | CC[C@@H](C)[C@@H](NC(=O)[C@H](CCC(N)=O)NC(=O)[C@H](Cc1csc2ccccc12)NC(=O)[C@H](Cc1ccccc1)NC(=O)[C@]1(C)CCCCCCC=CCCCC2(CCCC=CC[C@]3(CCCN3C(C)=O)C(=O)N[C@@H](CC(=O)O)C(=O)N[C@@H](CC(C)C)C(=O)N2)C(=O)N[C@@H](CC(=O)O)C(=O)N[C@@H](CCC(=O)O)C(=O)N[C@@H](C)C(=O)N[C@@H](C)C(=O)N[C@@H](Cc2ccccc2)C(=O)N[C@@H](CC(N)=O)C(=O)N1)C(N)=O (stereo partly drawn) [I-734, Ac-PL3-Asp-Leu-B5-Asp-Glu-Ala-Ala-Phe-Asn-S8-Phe-BztA-Gln-dIle-NH2]
440 nM | 440 nM | 2.722 | – | – | CC(=O)N1CCC[C@]12CC=CCCCC1(CCCC=CCCCCCC[C@@](C)(C(=O)N[C@@H](Cc3ccccc3)C(=O)N[C@@H](Cc3csc4ccccc34)C(=O)N[C@@H](CCC(N)=O)C(=O)NC(C)(C)C(N)=O)NC(=O)[C@H](CC(N)=O)NC(=O)[C@H](Cc3ccccc3)NC(=O)[C@H](C)NC(=O)[C@H](C)NC(=O)[C@H](CCC(=O)O)NC(=O)[C@H](CC(=O)O)NC1=O)NC(=O)[C@H](CC(C)C)NC(=O)[C@H](CC(=O)O)NC2=O (stereo partly drawn) [I-736, Ac-PL3-Asp-Leu-B5-Asp-Glu-Ala-Ala-Phe-Asn-S8-Phe-BztA-Gln-Aib-NH2]
376 nM | 376 nM | 2.822 | – | – | CC[C@H](C)[C@H](NC(=O)[C@H](Cc1c[nH]cn1)NC(=O)[C@H](Cc1csc2ccccc12)NC(=O)[C@H](Cc1ccccc1)NC(=O)[C@]1(C)CCCCCCC=CCCCC2(CCCC=CC[C@]3(CCCN3C(C)=O)C(=O)N[C@@H](CC(=O)O)C(=O)N[C@@H](CC(C)C)C(=O)N2)C(=O)N[C@@H](CC(=O)O)C(=O)N[C@@H](CCC(=O)O)C(=O)N[C@@H](C)C(=O)N[C@@H](C)C(=O)N[C@@H](Cc2ccccc2)C(=O)N[C@@H](CC(N)=O)C(=O)N1)C(N)=O (stereo partly drawn) [I-740, Ac-PL3-Asp-Leu-B5-Asp-Glu-Ala-Ala-Phe-Asn-S8-Phe-BztA-His-Ile-NH2]
112 nM | 112 nM | 2.557 | – | – | CC(=O)N1CCC[C@]12CC=CCCCC1(CCCC=CCCCCCC[C@@](C)(C(=O)N[C@@H](Cc3ccccc3)C(=O)N[C@@H](Cc3csc4ccccc34)C(=O)N[C@H](Cc3c[nH]cn3)C(N)=O)NC(=O)[C@H](CC(N)=O)NC(=O)[C@H](Cc3ccccc3)NC(=O)[C@H](C)NC(=O)[C@H](C)NC(=O)[C@H](CCC(=O)O)NC(=O)[C@H](CC(=O)O)NC1=O)NC(=O)[C@H](CC(C)C)NC(=O)[C@H](CC(=O)O)NC2=O (stereo partly drawn) [I-744, Ac-PL3-Asp-Leu-B5-Asp-Glu-Ala-Ala-Phe-Asn-S8-Phe-BztA-dHis-NH2]
54 nM | 54 nM | 2.459 | – | – | CC(=O)N1CCC[C@]12CC=CCCCC1(CCCC=CCCCCCC[C@@](C)(C(=O)N[C@@H](Cc3ccccc3)C(=O)N[C@@H](Cc3csc4ccccc34)C(=O)N[C@H](C(N)=O)[C@@H](C)O)NC(=O)[C@H](CC(N)=O)NC(=O)[C@H](Cc3ccccc3)NC(=O)[C@H](C)NC(=O)[C@H](C)NC(=O)[C@H](CCC(=O)O)NC(=O)[C@H](CC(=O)O)NC1=O)NC(=O)[C@H](CC(C)C)NC(=O)[C@H](CC(=O)O)NC2=O (stereo partly drawn) [I-748, Ac-PL3-Asp-Leu-B5-Asp-Glu-Ala-Ala-Phe-Asn-S8-Phe-BztA-Thr-NH2]
– | 115 nM | 2.666 | 115 nM | – | CC(=O)N1CCC[C@]12CC=CCCCC1(CCCC=CCCCCCC[C@@](C)(C(=O)N[C@@H](Cc3ccccc3)C(=O)N[C@@H](Cc3csc4ccccc34)C(=O)N[C@@H](C(N)=O)[C@H](C)O)NC(=O)[C@H](CC(N)=O)NC(=O)[C@H](Cc3ccccc3)NC(=O)[C@H](C)NC(=O)[C@H](C)NC(=O)[C@H](CCC(=O)O)NC(=O)[C@H](CC(=O)O)NC1=O)NC(=O)[C@H](CC(C)C)NC(=O)[C@H](CC(=O)O)NC2=O (stereo partly drawn) [I-754, Ac-PL3-Asp-Leu-B5-Asp-Glu-Ala-Ala-Phe-Asn-S8-Phe-BztA-dThr-NH2]
– | 64 nM | 2.546 | 64 nM | – | CC(=O)N1CCC[C@]12CC=CCCCC1(CCCC=CCCCCCC[C@@](C)(C(=O)N[C@@H](Cc3ccccc3)C(=O)N[C@@H](Cc3csc4ccccc34)C(=O)N[C@H](CC(N)=O)C(N)=O)NC(=O)[C@H](CC(N)=O)NC(=O)[C@H](Cc3ccccc3)NC(=O)[C@H](C)NC(=O)[C@H](C)NC(=O)[C@H](CCC(=O)O)NC(=O)[C@H](CC(=O)O)NC1=O)NC(=O)[C@H](CC(C)C)NC(=O)[C@H](CC(=O)O)NC2=O (stereo partly drawn) [I-757, Ac-PL3-Asp-Leu-B5-Asp-Glu-Ala-Ala-Phe-Asn-S8-Phe-BztA-dAsn-NH2]
– | 1530 nM | 2.582 | 1530 nM | – | CC(=O)N1CCC[C@]12CC=CCCCC1(CCCC=CCCCCCC[C@@](C)(C(=O)N[C@@H](Cc3ccccc3)C(=O)N[C@@H](Cc3csc4ccccc34)C(=O)N(C)[C@@H](CO)C(N)=O)NC(=O)[C@H](CC(N)=O)NC(=O)[C@H](Cc3ccccc3)NC(=O)[C@H](C)NC(=O)[C@H](C)NC(=O)[C@H](CCC(=O)O)NC(=O)[C@H](CC(=O)O)NC1=O)NC(=O)[C@H](CC(C)C)NC(=O)[C@H](CC(=O)O)NC2=O (stereo partly drawn) [I-759, Ac-PL3-Asp-Leu-B5-Asp-Glu-Ala-Ala-Phe-Asn-S8-Phe-BztA-NMeS-NH2]
– | 608 nM | 2.66 | 608 nM | – | CC(=O)N1CCC[C@]12CC=CCCCC1(CCCC=CCCCCCC[C@@](C)(C(=O)N[C@@H](Cc3ccccc3)C(=O)N[C@@H](Cc3csc4ccccc34)C(=O)N(C)[C@@H](CO)C(N)=O)NC(=O)[C@H](CC(N)=O)NC(=O)[C@H](Cc3ccccc3)NC(=O)[C@H](C)NC(=O)[C@H](C)NC(=O)[C@H](CCC(=O)O)NC(=O)[C@H](CC(=O)O)NC1=O)NC(=O)[C@H](CC(C)C)NC(=O)[C@H](CC(=O)O)NC2=O (stereo partly drawn) [I-760, Ac-PL3-Asp-Leu-B5-Asp-Glu-Ala-Ala-Phe-Asn-S8-Phe-BztA-NMeS-NH2]
– | – | 1.967 | 5 nM | – | CC(=O)N1CCC[C@]12CC=CCCCC1(CCCC=CCCCOC(=O)N3CC[C@@](C(=O)N[C@@H](Cc4ccsc4)C(=O)N[C@@H](Cc4csc5ccccc45)C(=O)N[C@@H](CCC(N)=O)C(N)=O)(C3)NC(=O)[C@H](CCC(N)=O)NC(=O)[C@H](Cc3ccccc3)NC(=O)[C@H](C)NC(=O)[C@H](C)NC(=O)[C@H](CC(=O)O)NC(=O)[C@H](CC(=O)O)NC1=O)NC(=O)[C@H](CC(C)(C)C)NC(=O)[C@H](CC(=O)O)NC2=O (stereo partly drawn) [I-763, Ac-PL3-Asp-Npg-B5-Asp-Asp-Ala-Ala-Phe-Gln-PyrS2-3Thi-BztA-Gln-NH2]
– | – | – | 106 nM | 2.07 | CC(=O)N1CCC[C@]12CC=CCCCC1(CCCC=CCCCOC(=O)N3CC[C@@](C(=O)N[C@@H](Cc4ccsc4)C(=O)N[C@@H](Cc4c[nH]c5cc(Cl)ccc45)C(=O)N[C@@H](Cc4c[nH]cn4)C(N)=O)(C3)NC(=O)[C@H](CC(N)=O)NC(=O)[C@H](Cc3ccccc3)NC(=O)[C@H](C)NC(=O)[C@H](C)NC(=O)[C@H](CC(=O)O)NC(=O)[C@H](CC(=O)O)NC1=O)NC(=O)[C@H](CC(C)(C)C)NC(=O)[C@H](CC(=O)O)NC2=O (stereo partly drawn) [I-798, Ac-PL3-Asp-Npg-B5-Asp-Asp-Ala-Ala-Phe-Asn-PyrS2-3Thi-6C1W-His-NH2]
– | – | – | 8 nM | 2.52 | CC(=O)N1CCC[C@]12CC=CCCCC1(CCCC=CCCCOC(=O)N3CC[C@@](C(=O)N[C@@H](Cc4ccsc4)C(=O)N[C@@H](Cc4csc5ccccc45)C(=O)N[C@@H](CCC(N)=O)C(N)=O)(C3)NC(=O)[C@H](Cc3ccccc3)NC(=O)[C@H](Cc3ccccc3)NC(=O)[C@H](C)NC(=O)[C@H](C)NC(=O)[C@H](Cc3ccccc3C(=O)O)NC(=O)[C@H](CC(=O)O)NC1=O)NC(=O)[C@H](CC(C)(C)C)NC(=O)[C@H](CC(=O)O)NC2=O (stereo partly drawn) [I-853, Ac-PL3-Asp-Npg-B5-Asp-2COOHF-Ala-Ala-Phe-Phe-PyrS2-3Thi-BztA-Gln-NH2]
– | – | – | 22 nM | 2.54 | CC(=O)N1CCC[C@]12CC=CCCCC1(CCCC=CCCCOC(=O)N3CC[C@@](C(=O)N[C@@H](Cc4ccsc4)C(=O)N[C@@H](Cc4csc5ccccc45)C(=O)N[C@@H](CCC(N)=O)C(N)=O)(C3)NC(=O)[C@H](Cc3ccccc3)NC(=O)[C@H](Cc3ccccc3)NC(=O)[C@H](C)NC(=O)[C@H](C)NC(=O)[C@H](CC(N)=O)NC(=O)[C@H](CC(=O)O)NC1=O)NC(=O)[C@H](CC(C)(C)C)NC(=O)[C@H](CC(=O)O)NC2=O (stereo partly drawn) [I-855, Ac-PL3-Asp-Npg-B5-Asp-Asn-Ala-Ala-Phe-Phe-PyrS2-3Thi-BztA-Gln-NH2]
